Measured values taken from US9382188B2, “Aromatic ring compound” (TAKEDA PHARMACEUTICAL COMPANY LIMITED, priority 2012, dated 2016).

These compounds were tested against T1, human GPR40 (Homo sapiens, UniProt O14842) (assay: Evaluation of human GPR40 agonist activity with increase in intracellular Ca2+ concentration as an index (FLIPR Tetra)). Conditions: test compound 1 μM; CHO(dhfr-) cells stably expressing human GPR40; 100% = activity of 1 μM WO2009/048527 Example 99.2, 0% = DMSO.
T1 construct: expressed in transfected cells
T1 sequence (O14842 whole entry): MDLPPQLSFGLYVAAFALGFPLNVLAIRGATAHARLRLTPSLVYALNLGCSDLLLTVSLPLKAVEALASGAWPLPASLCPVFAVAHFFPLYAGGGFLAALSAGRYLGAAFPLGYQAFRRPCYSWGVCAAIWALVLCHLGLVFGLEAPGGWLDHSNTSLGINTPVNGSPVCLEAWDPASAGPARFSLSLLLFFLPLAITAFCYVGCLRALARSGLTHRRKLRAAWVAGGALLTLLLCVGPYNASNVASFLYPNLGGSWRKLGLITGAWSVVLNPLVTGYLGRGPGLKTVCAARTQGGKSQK
Format: cell-based
Experimental: Evaluation of human GPR40 agonist activity with increase in intracellular Ca^2+ concentration as an index
CHO(dhfr-) cells that stably expressed human GPR40 were suspended in MEMα (Nikken Bio Medical Laboratory) containing 10% dialysis serum (GEMINI BIO-PRODUCTS), 10 mM HEPES (Invitrogen), 100 U/mL penicillin, 100 μg/mL streptomycin (Invitrogen), and plated on a 384 well black/clear cell culture plate at 10,000 cells/well. After culture overnight in a CO2 incubator at 37° C., the culture supernatant was removed, and a loading buffer [dye attached to Calcium 5 Assay Kit (Molecular Devices) was dissolved in an assay buffer (20 mM HEPES, 0.2% fatty acid-free BSA (Sigma-Aldrich), 2.5 mM probenecid (DOJINDO)-containing HBSS (Invitrogen)) added with 0.025% Cremophor EL (DOJINDO)] was added at 37.5 μL/well. After incubation in a CO2 incubator at 37° C. for 1 hr, the cells were stood at room temperature for 15 min, an assay buffer containing the test compound at a final concentration of 1 μM was added at 12.5 μL/well in FLIPR Tetra (Molecular Devices), and the fluorescence amount was successively measured. Human GPR40 agonist activity calculated using an increase in the intracellular Ca^2+ concentration as an index, wherein the activity of 1 μM of the compound described in WO 2009/048527 (WO2009/048527 Example 99.2) was 100%, and the activity when DMSO was added instead of the test compound was 0%.
Compound `CC(C)(C)Cc1cc(OCc2cccc(C(CC(=O)O)C3CC3)c2)cnc1-c1cc(OC2CCCCO2)ccc1F` (stereo not shown) [Example 44, 3-cyclopropyl-3-(3-(((5-(2,2-dimethylpropyl)-6-(2-fluoro-5-(tetrahydro-2H-pyran-2-yloxy)phenyl)pyridin-3-yl)oxy)methyl)phenyl)propanoic acid] has an activation at 1 µM of 3%. Work on `CC(C)(C)Cc1cc(OCc2cccc(C(CC(=O)O)C3CC3)c2)cnc1-c1ccccc1` (stereo not shown) [Example 45, 3-cyclopropyl-3-(3-(((5-(2,2-dimethylpropyl)-6-phenylpyridin-3-yl)oxy)methyl)phenyl)propanoic acid] yielded an activation at 1 µM of 55%. Work on `COc1cccc(-c2ncc(OCc3cccc(C(CC(=O)O)C4CC4)c3)cc2CC(C)(C)C)c1` (stereo not shown) [Example 46, 3-cyclopropyl-3-(3-(((5-(2,2-dimethylpropyl)-6-(3-methoxyphenyl)pyridin-3-yl)oxy)methyl)phenyl)propanoic acid] yielded an activation at 1 µM of 117%. `Cc1cccc(-c2ncc(OCc3cccc(C(CC(=O)O)C4CC4)c3)cc2CC(C)(C)C)c1` (stereo not shown) [Example 47, 3-cyclopropyl-3-(3-(((5-(2,2-dimethylpropyl)-6-(3-methylphenyl)pyridin-3-yl)oxy)methyl)phenyl)propanoic acid] showed an activation at 1 µM of 92%. With `COc1ccc(-c2ncc(OCc3cccc(C(CC(=O)O)C4CC4)c3)cc2CC(C)(C)C)cc1` (stereo not shown) [Example 48, 3-cyclopropyl-3-(3-(((5-(2,2-dimethylpropyl)-6-(4-methoxyphenyl)pyridin-3-yl)oxy)methyl)phenyl)propanoic acid] the activation at 1 µM was -1%. In the case of `CC(C)(C)Cc1cc(OCc2cccc(C(CC(=O)O)C3CC3)c2)cnc1-c1cccc(OC(F)(F)F)c1` (stereo not shown) [Example 49, 3-cyclopropyl-3-(3-(((5-(2,2-dimethylpropyl)-6-(3-(trifluoromethoxy)phenyl)pyridin-3-yl)oxy)methyl)phenyl)propanoic acid], the activation at 1 µM is reported as -23%. `COc1ccccc1-c1ncc(OCc2cccc(C(CC(=O)O)C3CC3)c2)cc1CC(C)(C)C` (stereo not shown) [Example 50, 3-cyclopropyl-3-(3-(((5-(2,2-dimethylpropyl)-6-(2-methoxyphenyl)pyridin-3-yl)oxy)methyl)phenyl)propanoic acid] was tested, and the activation at 1 µM was 9%. Work on `CC(C)(C)Cc1cc(OCc2cccc(C(CC(=O)O)C3CC3)c2)cnc1-c1cccc(C(=O)O)c1` (stereo not shown) [Example 51, 3-(5-((3-(2-carboxy-1-cyclopropylethyl)benzyl)oxy)-3-(2,2-dimethylpropyl)pyridin-2-yl)benzoic acid] yielded an activation at 1 µM of 0%. Compound `CC(C)(C)Cc1cc(OCc2cccc(C(CC(=O)O)C3CC3)c2)cnc1-c1cccc(C(F)(F)F)c1` (stereo not shown) [Example 52, 3-cyclopropyl-3-(3-(((5-(2,2-dimethylpropyl)-6-(3-(trifluoromethyl)phenyl)pyridin-3-yl)oxy)methyl)phenyl)propanoic acid] has an activation at 1 µM of 14%. Compound `COc1ccc(OC)c(-c2ncc(OCc3cccc(C(CC(=O)O)C4CC4)c3)cc2CC(C)(C)C)c1` (stereo not shown) [Example 53, 3-cyclopropyl-3-(3-(((6-(2,5-dimethoxyphenyl)-5-(2,2-dimethylpropyl)pyridin-3-yl)oxy)methyl)phenyl)propanoic acid] has an activation at 1 µM of 99%. For `COc1ccc(-c2ncc(OCc3cccc(C(CC(=O)O)C4CC4)c3)cc2CC(C)(C)C)cc1OC` (stereo not shown) [Example 54, 3-cyclopropyl-3-(3-(((6-(3,4-dimethoxyphenyl)-5-(2,2-dimethylpropyl)pyridin-3-yl)oxy)methyl)phenyl)propanoic acid], the activation at 1 µM was 3%. `CC(C)(C)Cc1cc(OCc2cccc(C(CC(=O)O)C3CC3)c2)cnc1-c1cccc(O)c1` (stereo not shown) [Example 55, 3-cyclopropyl-3-(3-(((5-(2,2-dimethylpropyl)-6-(3-hydroxyphenyl)pyridin-3-yl)oxy)methyl)phenyl)propanoic acid] was tested, and the activation at 1 µM was 126%. With `COc1cc(OC)cc(-c2ncc(OCc3cccc(C(CC(=O)O)C4CC4)c3)cc2CC(C)(C)C)c1` (stereo not shown) [Example 56, 3-cyclopropyl-3-(3-(((6-(3,5-dimethoxyphenyl)-5-(2,2-dimethylpropyl)pyridin-3-yl)oxy)methyl)phenyl)propanoic acid] the activation at 1 µM was 31%. With `COc1cc(-c2ncc(OCc3cccc(C(CC(=O)O)C4CC4)c3)cc2CC(C)(C)C)c(F)cn1` (stereo not shown) [Example 57, 3-cyclopropyl-3-(3-(((3-(2,2-dimethylpropyl)-5′-fluoro-2′-methoxy-2,4′-bipyridin-5-yl)oxy)methyl)phenyl)propanoic acid] the activation at 1 µM was 106%. For `COc1ccc(C)c(-c2ncc(OCc3cccc(C(CC(=O)O)C4CC4)c3)cc2CC(C)(C)C)c1` (stereo not shown) [Example 58, 3-cyclopropyl-3-(3-(((5-(2,2-dimethylpropyl)-6-(5-methoxy-2-methylphenyl)pyridin-3-yl)oxy)methyl)phenyl)propanoic acid], the activation at 1 µM was 114%. In the case of `COc1ccc(Cl)c(-c2ncc(OCc3cccc(C(CC(=O)O)C4CC4)c3)cc2CC(C)(C)C)c1` (stereo not shown) [Example 59, 3-(3-(((6-(2-chloro-5-methoxyphenyl)-5-(2,2-dimethylpropyl)pyridin-3-yl)oxy)methyl)phenyl)-3-cyclopropylpropanoic acid], the activation at 1 µM is reported as 115%. `CC(C)(C)Cc1cc(OCc2cccc(C(CC(=O)O)C3CC3)c2)cnc1-c1cc(C#N)ccc1F` (stereo not shown) [Example 60, 3-(3-(((6-(5-cyano-2-fluorophenyl)-5-(2,2-dimethylpropyl)pyridin-3-yl)oxy)methyl)phenyl)-3-cyclopropylpropanoic acid] was tested, and the activation at 1 µM was 56%. `CC(C)(C)Cc1cc(OCc2cccc(C(CC(=O)O)C3CC3)c2)cnc1-c1ccc(OC(F)(F)F)cc1` (stereo not shown) [Example 61, 3-cyclopropyl-3-(3-(((5-(2,2-dimethylpropyl)-6-(4-(trifluoromethoxy)phenyl)pyridin-3-yl)oxy)methyl)phenyl)propanoic acid] showed an activation at 1 µM of 8%. With `CC(C)(C)Cc1cc(OCc2cccc(C(CC(=O)O)C3CC3)c2)cnc1-c1cccc(NS(C)(=O)=O)c1` (stereo not shown) [Example 62, 3-cyclopropyl-3-(3-(((5-(2,2-dimethylpropyl)-6-(3-((methylsulfonyl)amino)phenyl)pyridin-3-yl)oxy)methyl)phenyl)propanoic acid] the activation at 1 µM was 4%. `Cc1cncc(-c2ncc(OCc3cccc(C(CC(=O)O)C4CC4)c3)cc2CC(C)(C)C)c1` (stereo not shown) [Example 63, 3-cyclopropyl-3-(3-(((3-(2,2-dimethylpropyl)-5′-methyl-2,3′-bipyridin-5-yl)oxy)methyl)phenyl)propanoic acid] was tested, and the activation at 1 µM was 21%. `COc1cncc(-c2ncc(OCc3cccc(C(CC(=O)O)C4CC4)c3)cc2CC(C)(C)C)c1` (stereo not shown) [Example 66, 3-cyclopropyl-3-(3-(((3-(2,2-dimethylpropyl)-5′-methoxy-2,3′-bipyridin-5-yl)oxy)methyl)phenyl)propanoic acid] gave an activation at 1 µM of 57%. Work on `CC(C)(C)Cc1cc(OCc2cccc(C(CC(=O)O)C3CC3)c2)cnc1-c1cccc(S(=O)(=O)N2CCOCC2)c1` (stereo not shown) [Example 67, 3-cyclopropyl-3-(3-(((5-(2,2-dimethylpropyl)-6-(3-(morpholin-4-ylsulfonyl)phenyl)pyridin-3-yl)oxy)methyl)phenyl)propanoic acid] yielded an activation at 1 µM of 8%. Compound `CCOc1ccc(F)c(-c2ncc(OCc3cccc(C(CC(=O)O)C4CC4)c3)cc2CC(C)(C)C)c1` (stereo not shown) [Example 68, 3-cyclopropyl-3-(3-(((5-(2,2-dimethylpropyl)-6-(5-ethoxy-2-fluorophenyl)pyridin-3-yl)oxy)methyl)phenyl)propanoic acid] has an activation at 1 µM of 116%. `CC(C)Oc1ccc(F)c(-c2ncc(OCc3cccc(C(CC(=O)O)C4CC4)c3)cc2CC(C)(C)C)c1` (stereo not shown) [Example 69, 3-cyclopropyl-3-(3-(((5-(2,2-dimethylpropyl)-6-(2-fluoro-5-isopropoxyphenyl)pyridin-3-yl)oxy)methyl)phenyl)propanoic acid] gave an activation at 1 µM of 61%. In the case of `CC(C)(C)Cc1cc(OCc2cccc(C(CC(=O)O)C3CC3)c2)cnc1-c1cc(OCC(F)(F)F)ccc1F` (stereo not shown) [Example 70, 3-cyclopropyl-3-(3-(((5-(2,2-dimethylpropyl)-6-(2-fluoro-5-(2,2,2-trifluoroethoxy)phenyl)pyridin-3-yl)oxy)methyl)phenyl)propanoic acid], the activation at 1 µM is reported as -8%. For `CCCCCOc1ccc(F)c(-c2ncc(OCc3cccc(C(CC(=O)O)C4CC4)c3)cc2CC(C)(C)C)c1` (stereo not shown) [Example 71, 3-cyclopropyl-3-(3-(((5-(2,2-dimethylpropyl)-6-(2-fluoro-5-(pentyloxy)phenyl)pyridin-3-yl)oxy)methyl)phenyl)propanoic acid], the activation at 1 µM was 1%. For `COCCCOc1ccc(F)c(-c2ncc(OCc3cccc(C(CC(=O)O)C4CC4)c3)cc2CC(C)(C)C)c1` (stereo not shown) [Example 72, 3-cyclopropyl-3-(3-(((5-(2,2-dimethylpropyl)-6-(2-fluoro-5-(3-methoxypropoxy)phenyl)pyridin-3-yl)oxy)methyl)phenyl)propanoic acid], the activation at 1 µM was 1%. `CC(C)(C)Cc1cc(OCc2cccc(C(CC(=O)O)C3CC3)c2)cnc1-c1cc(O)ccc1F` (stereo not shown) [Example 73, 3-cyclopropyl-3-(3-(((5-(2,2-dimethylpropyl)-6-(2-fluoro-5-hydroxyphenyl)pyridin-3-yl)oxy)methyl)phenyl)propanoic acid] showed an activation at 1 µM of 123%.
